Results taken from patent US5202315A, “Cephalosporin compounds” (Lucky, Ltd., priority 1989, dated 1993).
In brackets after ≈: the same amount, converted by molar mass.

Tests used:
Assay in all cases: Antibacterial activity, MIC
Format in all cases: cell-based
[1] = system: Acinetobacter calcoaceticus ATCC 15473; conditions: ATCC15473, ATCC 15473, agar two-fold dilution, 37° C., 20 hours, read-out: MIC
How it was run: (§1)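 MIC by two-fold serial dilution in Mueller-Hinton agar; inoculum 2 μl at 10^7 CFU/ml; 37 °C, 20 h.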

[2] = system: Bacillus cereus ATCC 11778; conditions: ATCC11778, ATCC 11778, agar two-fold dilution, 37° C., 20 hours, read-out: MIC
How it was run: as §1

[3] = system: Bacillus megaterium ATCC 9885; conditions: Priestia megaterium, ATCC9885; ATCC 9885; agar two-fold dilution, 37° C., 20 hours; read-out: MIC
How it was run: as §1

[4] = system: Citrobacter freundii ATCC 8090; conditions: ATCC8090, ATCC 8090, agar two-fold dilution, 37° C., 20 hours, read-out: MIC
How it was run: as §1

[5] = system: Enterobacter aerogenes ATCC 29751; conditions: Klebsiella aerogenes, ATCC29751; ATCC 29751; agar two-fold dilution, 37° C., 20 hours; read-out: MIC
How it was run: as §1

[6] = system: Enterobacter cloacae ATCC 27508; conditions: ATCC27508, ATCC 27508, agar two-fold dilution, 37° C., 20 hours, read-out: MIC
How it was run: as §1

[7] = system: Escherichia coli ATCC 10536; conditions: ATCC10536, agar two-fold dilution, 37° C., 20 hours
How it was run: as §1

[8] = system: Escherichia coli ATCC 25922; conditions: ATCC25922, agar two-fold dilution, 37° C., 20 hours
How it was run: as §1

[9] = system: Klebsiella pneumoniae ATCC 10031; conditions: ATCC10031, ATCC 10031, agar two-fold dilution, 37° C., 20 hours, read-out: MIC
How it was run: as §1

[10] = system: Micrococcus luteus ATCC 9341; conditions: ATCC9341, ATCC 9341, agar two-fold dilution, 37° C., 20 hours, read-out: MIC
How it was run: as §1

[11] = system: Morganella morganii ATCC 8076h; conditions: ATCC8076H, agar two-fold dilution, 37° C., 20 hours
How it was run: as §1

[12] = system: Proteus mirabilis ATCC 25933; conditions: ATCC25933, ATCC 25933, agar two-fold dilution, 37° C., 20 hours, read-out: MIC
How it was run: as §1

[13] = system: Proteus vulgaris ATCC 6059; conditions: ATCC6059, ATCC 6059, agar two-fold dilution, 37° C., 20 hours, read-out: MIC
How it was run: as §1

[14] = system: Providencia rettgeri ATCC 9250; conditions: ATCC9250, agar two-fold dilution, 37° C., 20 hours
How it was run: as §1

[15] = system: Pseudomonas aeruginosa ATCC 10145; conditions: ATCC10145, ATCC 10145, agar two-fold dilution, 37° C., 20 hours, read-out: MIC
How it was run: as §1

[16] = system: Pseudomonas aeruginosa ATCC 25619; conditions: ATCC25619, ATCC 25619, agar two-fold dilution, 37° C., 20 hours, read-out: MIC
How it was run: as §1

[17] = system: Pseudomonas aeruginosa ATCC 27853; conditions: ATCC27853, ATCC 27853, agar two-fold dilution, 37° C., 20 hours, read-out: MIC
How it was run: as §1

[18] = system: Salmonella typhimurium ATCC 14028; conditions: Salmonella enterica; ATCC 14028; agar two-fold dilution, 37° C., 20 hours; read-out: MIC
How it was run: as §1

[19] = system: Serratia marcescens ATCC 27117; conditions: ATCC27117, ATCC 27117, agar two-fold dilution, 37° C., 20 hours, read-out: MIC
How it was run: as §1

[20] = system: Shigella flexneri ATCC 11836; conditions: ATCC11836, agar two-fold dilution, 37° C., 20 hours
How it was run: as §1

[21] = system: Shigella sonnei ATCC 11060; conditions: ATCC11060, ATCC 11060, agar two-fold dilution, 37° C., 20 hours, read-out: MIC
How it was run: as §1

[22] = system: Staphylococcus aureus ATCC 10537; conditions: ATCC10537, ATCC 10537, agar two-fold dilution, 37° C., 20 hours, read-out: MIC
How it was run: as §1

[23] = system: Staphylococcus aureus ATCC 6538p; conditions: ATCC6538P, ATCC 6538p, agar two-fold dilution, 37° C., 20 hours, read-out: MIC
How it was run: as §1

[24] = system: Staphylococcus epidermidis ATCC 12228; conditions: ATCC12228, ATCC 12228, agar two-fold dilution, 37° C., 20 hours, read-out: MIC
How it was run: as §1

[25] = system: Streptococcus faecalis ATCC 29212; conditions: Enterococcus faecalis, ATCC29212; ATCC 29212; agar two-fold dilution, 37° C., 20 hours; read-out: MIC
How it was run: as §1

Structure (SMILES) | MIC [1] [µg/mL] | MIC [2] [µg/mL] | MIC [3] [µg/mL] | MIC [4] [µg/mL] | MIC [5] [µg/mL] | MIC [6] [µg/mL] | MIC [7] [µg/mL] | MIC [8] [µg/mL] | MIC [9] [µg/mL] | MIC [10] [µg/mL] | MIC [11] [µg/mL] | MIC [12] [µg/mL] | MIC [13] [µg/mL] | MIC [14] [µg/mL] | MIC [15] [µg/mL] | MIC [16] [µg/mL] | MIC [17] [µg/mL] | MIC [18] [µg/mL] | MIC [19] [µg/mL] | MIC [20] [µg/mL] | other results
COc1cccc(OC)c1-[n+]1c(N)cc(N)nc1SCC1=C(C(=O)[O-])N2C(=O)C(NC(=O)/C(=N\OC(C)(C)C(=O)O)c3csc(N)n3)C2SC1 (stereo not shown) [Compound I-43] | 32 (≈ 42.9 µM) | 32 (≈ 42.9 µM) | 0.25 (≈ 0.335 µM) | 1 (≈ 1.34 µM) | 2 (≈ 2.68 µM) | 0.25 (≈ 0.335 µM) | 0.5 (≈ 0.67 µM) | 0.5 (≈ 0.67 µM) | 0.25 (≈ 0.335 µM) | 0.25 (≈ 0.335 µM) | 0.031 (≈ 0.0416 µM) | 0.5 (≈ 0.67 µM) | 0.5 (≈ 0.67 µM) | 0.031 (≈ 0.0416 µM) | 8 (≈ 10.7 µM) | 4 (≈ 5.36 µM) | 4 (≈ 5.36 µM) | 2 (≈ 2.68 µM) | 2 (≈ 2.68 µM) | 0.25 (≈ 0.335 µM) | MIC [21]: 0.5 µg/mL (≈ 0.67 µM); MIC [22]: 2 µg/mL (≈ 2.68 µM); MIC [23]: 4 µg/mL (≈ 5.36 µM); MIC [24]: 2 µg/mL (≈ 2.68 µM); MIC [25]: > 128 µg/mL
CC(C)(O/N=C(\C(=O)NC1C(=O)N2C(C(=O)[O-])=C(CSc3nc(N)cc(N)[n+]3C3CC3)CSC12)c1csc(N)n1)C(=O)O (stereo not shown) [Compound I-48] | 4 (≈ 6.16 µM) | 64 (≈ 98.5 µM) | 0.5 (≈ 0.77 µM) | 0.13 (≈ 0.2 µM) | 2 (≈ 3.08 µM) | 0.031 (≈ 0.0477 µM) | 0.13 (≈ 0.2 µM) | 0.13 (≈ 0.2 µM) | 0.063 (≈ 0.097 µM) | 0.5 (≈ 0.77 µM) | ≤ 0.008 | 0.063 (≈ 0.097 µM) | 0.13 (≈ 0.2 µM) | ≤ 0.008 | 4 (≈ 6.16 µM) | 2 (≈ 3.08 µM) | 2 (≈ 3.08 µM) | 0.5 (≈ 0.77 µM) | 0.25 (≈ 0.385 µM) | 0.063 (≈ 0.097 µM) | MIC [21]: 0.13 µg/mL (≈ 0.2 µM); MIC [22]: 4 µg/mL (≈ 6.16 µM); MIC [23]: 4 µg/mL (≈ 6.16 µM); MIC [24]: 2 µg/mL (≈ 3.08 µM); MIC [25]: > 128 µg/mL
C=CCO/N=C(\C(=O)NC1C(=O)N2C(C(=O)[O-])=C(CSc3nc(N)cc(N)[n+]3C)CSC12)c1csc(N)n1 (stereo not shown) [Compound I-49] | 8 (≈ 13.8 µM) | 32 (≈ 55.4 µM) | 0.25 (≈ 0.433 µM) | 0.25 (≈ 0.433 µM) | 1 (≈ 1.73 µM) | 0.031 (≈ 0.0537 µM) | 0.25 (≈ 0.433 µM) | 0.25 (≈ 0.433 µM) | 0.016 (≈ 0.0277 µM) | 0.031 (≈ 0.0537 µM) | ≤ 0.008 | 0.5 (≈ 0.866 µM) | 0.5 (≈ 0.866 µM) | ≤ 0.008 | 16 (≈ 27.7 µM) | 1 (≈ 1.73 µM) | 8 (≈ 13.8 µM) | 1 (≈ 1.73 µM) | 0.5 (≈ 0.866 µM) | 0.063 (≈ 0.109 µM) | MIC [21]: 0.25 µg/mL (≈ 0.433 µM); MIC [22]: 0.25 µg/mL (≈ 0.433 µM); MIC [23]: 0.25 µg/mL (≈ 0.433 µM); MIC [24]: 0.13 µg/mL (≈ 0.225 µM); MIC [25]: 16 µg/mL (≈ 27.7 µM)
C=CCO/N=C(\C(=O)NC1C(=O)N2C(C(=O)[O-])=C(CSc3nc(N)cc(N)[n+]3CC)CSC12)c1csc(N)n1 (stereo not shown) [Compound I-50] | 4 (≈ 6.76 µM) | 8 (≈ 13.5 µM) | 0.13 (≈ 0.22 µM) | 0.13 (≈ 0.22 µM) | 0.5 (≈ 0.845 µM) | 0.016 (≈ 0.027 µM) | 0.13 (≈ 0.22 µM) | 0.13 (≈ 0.22 µM) | ≤ 0.008 | ≤ 0.008 | ≤ 0.008 | 0.25 (≈ 0.423 µM) | 0.25 (≈ 0.423 µM) | ≤ 0.008 | 4 (≈ 6.76 µM) | 1 (≈ 1.69 µM) | 4 (≈ 6.76 µM) | 0.5 (≈ 0.845 µM) | 0.25 (≈ 0.423 µM) | 0.031 (≈ 0.0524 µM) | MIC [21]: 0.13 µg/mL (≈ 0.22 µM); MIC [22]: 0.13 µg/mL (≈ 0.22 µM); MIC [23]: 0.13 µg/mL (≈ 0.22 µM); MIC [24]: 0.063 µg/mL (≈ 0.106 µM); MIC [25]: 8 µg/mL (≈ 13.5 µM)
